In the NIST ThermoML archive (doi:10.1016/j.jct.2015.11.016):
± gives the expanded uncertainty stated by the source.

Tests used:
[1] = 298.15 K; 101.33 kPa; Liquid; Vibrating tube method
[2] = xn = mol fraction of the nth substance listed; details: 298.15 K, 100 kPa, Liquid, Vibrating tube method

Row | mass density [1] [kg/m3] | Compound | further results
1 | 1014.47 ± 6 | CCCC[N+]1(C)CCCC1.N#CN=C=[N-] [1-butyl-1-methylpyrrolidinium dicyanamide] | –
2 | – | CCCC[N+]1(C)CCCC1.N#CN=C=[N-] [1-butyl-1-methylpyrrolidinium dicyanamide] + CCCCCCCC | mass density ([2]; x2 = 0.01): 1012.4 ± 6.1 kg/m3
3 | – | CCCC[N+]1(C)CCCC1.N#CN=C=[N-] [1-butyl-1-methylpyrrolidinium dicyanamide] + c1ccccc1 | mass density ([2]; x2 = 0.706): 964.75 ± 6.2 kg/m3
4 | 873.71 ± 2 | c1ccccc1 [benzene] | –
5 | 726.15 ± 2 | CCCCCCCCCC [decane] | –
6 | 698.86 ± 2 | CCCCCCCC [octane] | –
